Reference: patent publication US7741040B2, “Methods and compositions for detecting cancers” (Case Western Reserve University, priority 2002, dated 2010)

Test system: SLC5A8 silenced colon cancer cell lines
Assay: RT-PCR detection of SLC5A8 transcript after 5-azacytidine treatment
Type: cell-based, human
Conditions: 5-azacytidine 1.5 μg/ml, 24 h on day 2 and day 5
Description: Amplification and Sequencing of SLC5A8. The primers used for RT-PCR assay of a SLC5A8 fragment are 5′-TCCGAGGTCTACCGTTTTG-3′, and 5′-GGGCA GGGGC ATAAA TAAC-3′. The PCR parameters were 35 cycles of 95° C. (45s), 54° C. (45s), 72° C. (60s), 72° C. (10 min), and 4° C. to cool. The full length SLC5A8 ORF was amplified using primers: 5′TCCGGGATAAGAAGTGCG-3′ and 5′-[…]-3′. GC-rich cDNA polymerase kit (Clonetech) was used and PCR parameters were 35 cycles of 95° C. (45s), 62° C. (45s), 72° C. (90s), 72° C. (10 min), and 4° C. to cool. Sequencing primers were: 5′-TTTGT GGTGGTCA TCAGCG-3′,5′-GGGCAGGGGCATAAATAAC-3′,5′-AGGCTGTG GTGATGCAAGGT-3′,5′-TTAATGCCTTAGCAGCAG-3′, and 5′-CCTCCACTT CCTGAGAGAAC-3′.
5-Azacytidine Treatment. The treatment was performed as described previously (Veigl et al., 1998, Proc Natl Acad Sci USA 95: 8698-8702). Briefly, cells were treated for 24 h on day 2 and day 5 with 5-azacytidine (Sigma) at 1.5 μg/ml. The medium was changed 24 h after addition of the 5-azacytidine (i.e., on day 3 and day 6).

In the case of `Nc1ncn([C@@H]2O[C@H](CO)[C@@H](O)[C@H]2O)c(=O)n1` [5-azacytidine], the “reactivation of SLC5A8 expression (cell lines reactivated of cell lines tested)” value is reported as 6 of 8.
